According to EPA's ToxRefDB 2:

Experiments:
[1] = tested on: rat; settings: Prenatal developmental toxicity study, other, Oral, Gavage/Intubation, dose end: 15 GD
[2] = tested on: rat; settings: Prenatal developmental toxicity study, other, Oral, Gavage/Intubation, dose end: 15 GD; remark: listed apart in the source
[3] = tested on: rat; settings: Subchronic oral toxicity in rodents, other, Gavage/Intubation, dose end: 90 day, group: systemic, systemic / pathology microscopic / stomach / inflammation + systemic / pathology gross / stomach / thickened + systemic / pathology …
[4] = tested on: rat; settings: Prenatal developmental toxicity study, wistar, Oral, Gavage/Intubation, dose end: 18 GD
[5] = tested on: mouse; settings: Prenatal developmental toxicity study, cd1, Injection, Subcutaneous, dose end: 16 GD
[6] = tested on: mouse; settings: Multigenerational reproductive toxicity study, cd1, Oral, Feed, dose end: 1 generation
[7] = tested on: mouse; settings: Prenatal developmental toxicity study; cd1; Oral; Gavage/Intubation; dose end: 16 GD; group: developmental; developmental / developmental landmark / vaginal opening / vaginal opening + systemic / in life observation / body weight / litter weight + …
[8] = tested on: mouse; settings: Multigenerational reproductive toxicity study; cd1; Oral; Feed; dose end: 2 generation; group: reproductive; reproductive / reproductive performance / reproductive performance other / NOS + reproductive / reproductive performance / fertility / …
[9] = tested on: mouse; settings: Developmental neurotoxicity study, other, Oral, Gavage/Intubation, dose end: 147 PND, group: cannot be grouped
[10] = group: developmental, developmental / developmental malformation / bone / bent + developmental / developmental malformation / mouth / jaw / cleft palate + …
[11] = group: maternal, systemic / in life observation / body weight / body weight
[12] = group: maternal, systemic / in life observation / body weight / body weight + reproductive / reproductive performance / resorptions / resorptions + systemic…
[13] = group: developmental, developmental / developmental malformation / bone / curled + developmental / developmental malformation / mouth / jaw / cleft palate + …
[14] = group: maternal, systemic / in life observation / body weight / body weight gain
[15] = group: developmental, systemic / in life observation / body weight / offspring (pup) weight + systemic / organ weight / epididymis / absolute + systemic / organ …
[16] = group: maternal, reproductive / reproductive performance / gestational length / gestational length + systemic / in life observation / body weight / body …
[17] = group: developmental, developmental / developmental malformation / general / [other] + developmental / developmental landmark / nipple development / nipple …
[18] = systemic / clinical chemistry / [other] / [other] + systemic / in life observation / clinical signs / [other] + systemic / in life …
[19] = systemic / in life observation / clinical signs / [other] + systemic / in life observation / clinical signs / aggressive behavior

Question: Which results are given for CCC12COCN1COC2 [5-Ethyl-1-aza-3,7-dioxabicyclo[3.3.0]octane]?
Answer: LEL [1, 10]: 750 mg/kg/day; LOAEL [1, 10]: 750 mg/kg/day; NEL [1, 10]: 500 mg/kg/day; NOAEL [1, 10]: 500 mg/kg/day; LEL [1, 11]: 500 mg/kg/day; LOAEL [1, 11]: 500 mg/kg/day; NEL [1, 12]: 250 mg/kg/day; NOAEL [1, 12]: 250 mg/kg/day; LEL [2, 13]: 650 mg/kg/day; LOAEL [2, 13]: 650 mg/kg/day; NEL [2, 13]: 250 mg/kg/day; NOAEL [2, 13]: 250 mg/kg/day; LEL [2, 14]: 650 mg/kg/day; LOAEL [2, 14]: 650 mg/kg/day; NEL [2, 14]: 250 mg/kg/day; NOAEL [2, 14]: 250 mg/kg/day; LEL [3]: 50 mg/kg/day; LOAEL [3]: 50 mg/kg/day

Question: How did the LEL [4, 15] turn out when CC/C(=C(/CC)c1ccc(O)cc1)c1ccc(O)cc1 [Diethylstilbestrol] was run?
Answer: 0.03 mg/kg/day

Question: And the LOAEL [4, 15]?
Answer: > 0.03 mg/kg/day

Question: What about the NEL [4, 15] of the same compound?
Answer: < 0.03 mg/kg/day

Question: And the NOAEL [4, 15]?
Answer: ≥ 0.03 mg/kg/day

Question: What about the LEL [4, 16] of the same compound?
Answer: 0.03 mg/kg/day

Question: And the LOAEL [4, 16]?
Answer: > 0.03 mg/kg/day

Question: What about the NEL [4, 16] of the same compound?
Answer: < 0.03 mg/kg/day

Question: And the NOAEL [4, 16]?
Answer: ≥ 0.03 mg/kg/day

Question: And the LEL [5, 17]?
Answer: 0.1 mg/kg/day

Question: What about the LOAEL [5, 17] of the same compound?
Answer: > 0.1 mg/kg/day

Question: What about the NEL [5, 17] of the same compound?
Answer: 0.05 mg/kg/day

Question: What about the NOAEL [5, 17] of the same compound?
Answer: ≥ 0.1 mg/kg/day

Question: And the LEL [5, 14]?
Answer: 0.0025 mg/kg/day

Question: What about the LOAEL [5, 14] of the same compound?
Answer: 0.0025 mg/kg/day

Question: What about the NEL [5, 14] of the same compound?
Answer: < 0.0025 mg/kg/day

Question: And the NOAEL [5, 14]?
Answer: < 0.0025 mg/kg/day

Question: What about the NOAEL ([6]; group: offspring, systemic / in life observation / body weight / offspring (pup) weight) of the same compound?
Answer: ≥ 7.5e-09 mg/kg/day

Question: What about the NOAEL ([6]; group: reproductive, reproductive / reproductive performance / reproductive performance other / NOS + reproductive / reproductive performance / fertility / …) of the same compound?
Answer: ≥ 7.5e-09 mg/kg/day

Question: And the LEL [7]?
Answer: 0.01 mg/kg/day

Question: And the LOAEL [7]?
Answer: > 0.01 mg/kg/day

Question: What about the NEL [7] of the same compound?
Answer: < 0.01 mg/kg/day

Question: And the NOAEL [7]?
Answer: ≥ 0.01 mg/kg/day

Question: And the NOAEL [8]?
Answer: ≥ 7.5e-09 mg/kg/day

Question: What about the LOAEL [9, 18] of the same compound?
Answer: > 0.003 mg/kg/day

Question: And the NOAEL [9, 18]?
Answer: ≥ 0.003 mg/kg/day

Question: And the LEL [9, 19]?
Answer: 0.0003 mg/kg/day

Question: What about the NEL [9, 19] of the same compound?
Answer: < 0.0003 mg/kg/day
